Data as given in patent US9963434B2, “N-arylmethyl sulfonamide negative modulators of NR2A” (LUC THERAPEUTICS, priority 2013, dated 2018).
Read-outs that look alike come from different tables or passages of the source.

Target: NR1/NR2A (Homo sapiens (Human), UniProt Q05586+Q12879)
Test: FDSS Ca2+ influx inhibition assay in HEK293 cells expressing NR1/NR2A
Assay type: cell-based
Conditions: 3 μM glutamate, 3 μM glycine, 1 mM Ca2+
Summary of the method: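 Fluo-8-loaded HEK293 NR1/NR2A cells preincubated 10 min with compound at 10 μM final (0.1% DMSO) in Ca2+/Mg2+-free HBSS with 20 mM HEPES. Stimulated with 3 μM glutamate, 3 μM glycine, 1 mM Ca2+; FDSS recording for 3 min, end/baseline fluorescence ratio compared with MK801.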

[1] = inhibition relative to MK801, read-out: NR2A IC50

NR1/NR2A, sequence (Q12879 23-1464, other chains not shown): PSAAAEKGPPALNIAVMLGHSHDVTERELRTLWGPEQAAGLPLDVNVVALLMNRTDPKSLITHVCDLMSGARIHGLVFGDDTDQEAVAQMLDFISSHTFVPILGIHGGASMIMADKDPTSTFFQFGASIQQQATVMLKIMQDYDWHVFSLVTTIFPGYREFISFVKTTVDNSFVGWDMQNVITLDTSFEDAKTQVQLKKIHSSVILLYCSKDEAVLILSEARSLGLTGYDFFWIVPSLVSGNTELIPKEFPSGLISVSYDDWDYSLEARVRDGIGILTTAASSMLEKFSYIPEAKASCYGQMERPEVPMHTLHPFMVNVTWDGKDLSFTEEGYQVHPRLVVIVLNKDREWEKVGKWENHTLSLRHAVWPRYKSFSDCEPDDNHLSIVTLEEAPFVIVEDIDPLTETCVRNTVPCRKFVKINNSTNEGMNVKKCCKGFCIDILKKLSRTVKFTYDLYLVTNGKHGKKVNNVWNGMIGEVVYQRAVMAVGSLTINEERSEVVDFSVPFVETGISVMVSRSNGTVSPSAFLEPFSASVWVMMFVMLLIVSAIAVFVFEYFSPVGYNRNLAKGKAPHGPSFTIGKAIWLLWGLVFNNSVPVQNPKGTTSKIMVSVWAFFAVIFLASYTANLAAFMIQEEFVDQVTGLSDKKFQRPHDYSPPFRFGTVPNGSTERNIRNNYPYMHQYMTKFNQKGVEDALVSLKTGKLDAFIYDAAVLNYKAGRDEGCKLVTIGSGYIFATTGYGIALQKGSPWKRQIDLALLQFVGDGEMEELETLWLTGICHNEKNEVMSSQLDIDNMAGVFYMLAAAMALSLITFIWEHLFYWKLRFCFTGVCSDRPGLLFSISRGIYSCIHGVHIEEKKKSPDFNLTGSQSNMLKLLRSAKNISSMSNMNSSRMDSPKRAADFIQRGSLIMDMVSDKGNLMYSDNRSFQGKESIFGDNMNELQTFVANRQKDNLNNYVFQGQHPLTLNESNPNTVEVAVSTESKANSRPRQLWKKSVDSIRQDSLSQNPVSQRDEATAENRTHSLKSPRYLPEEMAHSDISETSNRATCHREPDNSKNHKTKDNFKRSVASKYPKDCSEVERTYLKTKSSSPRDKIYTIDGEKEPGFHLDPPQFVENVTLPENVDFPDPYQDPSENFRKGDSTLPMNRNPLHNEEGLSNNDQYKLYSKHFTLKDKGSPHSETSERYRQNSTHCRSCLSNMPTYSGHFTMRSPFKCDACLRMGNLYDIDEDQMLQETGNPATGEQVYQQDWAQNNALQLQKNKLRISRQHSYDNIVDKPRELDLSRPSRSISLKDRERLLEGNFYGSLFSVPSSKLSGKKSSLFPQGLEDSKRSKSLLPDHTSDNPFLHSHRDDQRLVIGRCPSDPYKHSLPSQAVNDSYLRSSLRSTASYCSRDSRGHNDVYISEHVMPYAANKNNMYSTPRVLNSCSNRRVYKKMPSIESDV

Compound	IC50 (read-out: Binned Activity) [µM]	IC50 [1] [µM]
COc1ccc(CNC(=O)c2ccc(CNS(=O)(=O)c3ccc(F)c(Cl)c3)cn2)cn1 [5-(3-chloro-4-fluorobenzenesulfon-amidomethyl)-N-[(6-methoxypyridin-3-yl)methyl]pyridine-2-carboxamide]	1 to 10	–
Cc1cccc(CNC(=O)c2cnc(CNS(=O)(=O)c3ccc(F)c(Cl)c3)cn2)n1 [5-(3-chloro-4-fluorobenzenesulfon-amidomethyl)-N-[(6-methylpyridin-2-yl)methyl]pyrazine-2-carboxamide]	> 10	10
Cc1cccc(CNC(=O)c2ccc(CNS(=O)(=O)c3ccc(F)c(Cl)c3)cn2)n1 [5-(3-chloro-4-fluorobenzenesulfon-amidomethyl)-N-[(6-methylpyridin-2-yl)methyl]pyridine-2-carboxamide]	> 10	10
Cc1nc(C)c(CNC(=O)c2cnc(CNS(=O)(=O)c3ccc(F)c(Cl)c3)cn2)s1 [5-(3-chloro-4-fluorobenzenesulfon-amidomethyl)-N-[(dimethyl-1,3-thiazol-5-yl)methyl]pyrazine-2-carboxamide]	> 10	10
Cc1nc(C)c(CNC(=O)c2ccc(CNS(=O)(=O)c3ccc(F)c(Cl)c3)cn2)s1 [5-(3-chloro-4-fluorobenzenesulfon-amidomethyl)-N-[(dimethyl-1,3-thiazol-5-yl)methyl]pyridine-2-carboxamide]	> 10	10
O=C(NCc1ncccc1C(F)(F)F)c1cnc(CNS(=O)(=O)c2ccc(F)c(Cl)c2)cn1 [5-(3-chloro-4-fluorobenzenesulfon-amidomethyl)-N-{[3-(trifluoromethyl)pyridin-2-yl]methyl}pyrazine-2-carboxamide]	> 10	10
O=C(NCc1ncccc1C(F)(F)F)c1ccc(CNS(=O)(=O)c2ccc(F)c(Cl)c2)cn1 [5-(3-chloro-4-fluorobenzenesulfon-amidomethyl)-N-{[3-(trifluoromethyl)pyridin-2-yl]methyl}pyridine-2-carboxamide]	> 10	10
O=C(NCc1ncc(C(F)(F)F)cc1Cl)c1cnc(CNS(=O)(=O)c2ccc(F)c(Cl)c2)cn1 [5-(3-chloro-4-fluorobenzenesulfon-amidomethyl)-N-{[3-chloro-5-(trifluoromethyl)pyridin-2-yl]methyl}pyrazine-2-carboxamide]	> 10	10
O=C(NCc1ncc(C(F)(F)F)cc1Cl)c1ccc(CNS(=O)(=O)c2ccc(F)c(Cl)c2)cn1 [5-(3-chloro-4-fluorobenzenesulfon-amidomethyl)-N-{[3-chloro-5-(trifluoromethyl)pyridin-2-yl]methyl}pyridine-2-carboxamide]	> 10	10
COc1cccc(CNC(=O)c2ccc(CNS(=O)(=O)c3ccc(F)c(Cl)c3)cn2)c1 [5-(3-chloro-4-fluorobenzenesulfon-midomethyl)-N-[(3-methoxyphenyl)methyl] pyridine-2-carboxamide]	1 to 10	–
Cc1ncc(CNC(=O)c2cnc(CNS(=O)(=O)c3cccc(Cl)c3)cn2)s1 [5-(3-chlorobenzenesulfon-amidomethyl)-N-[(2-methyl-1,3-thiazol-5-yl)methyl]pyrazine-2-carboxamide]	0.1 to 1	–
Cc1ncc(CNC(=O)c2ccc(CNS(=O)(=O)c3cccc(Cl)c3)cn2)s1 [5-(3-chlorobenzenesulfon-amidomethyl)-N-[(2-methyl-1,3-thiazol-5-yl)methyl]pyridine-2-carboxamide]	1 to 10	–
Cc1ncc(CNC(=O)c2cnc(CNS(=O)(=O)c3cccc(Cl)c3)c(C)n2)s1 [5-(3-chlorobenzenesulfon-midomethyl)-6-methyl-N-[(2-methyl-1,3-thiazol-5-yl)methyl]pyrazine-2-carboxamide]	< 0.1	–
Cc1ncc(CNC(=O)c2cnc(CNS(=O)(=O)c3ccc(Cl)c(F)c3)c(C)n2)s1 [5-(4-chloro-3-fluorobenzenesulfon-amidomethyl)-6-methyl-N-[(2-methyl-1,3-thiazol-5-yl)methyl]pyrazine-2-carboxamide]	1 to 10	–
Cc1ncc(CNC(=O)c2cnc(CNS(=O)(=O)c3ccc(Cl)c(F)c3)cn2)s1 [5-(4-chloro-3-fluorobenzenesulfon-amidomethyl)-N-[(2-methyl-1,3-thiazol-5-yl)methyl]pyrazine-2-carboxamide]	> 10	10
Cc1ncc(CNC(=O)c2ccc(CNS(=O)(=O)c3ccc(Cl)c(F)c3)cn2)s1 [5-(4-chloro-3-fluorobenzenesulfon-amidomethyl)-N-[(2-methyl-1,3-thiazol-5-yl)methyl]pyridine-2-carboxamide]	1 to 10	–
Cc1ncc(CNC(=O)c2cnc(CNS(=O)(=O)c3ccc(F)cc3)c(C)n2)s1 [5-(4-fluorobenzenesulfon-amidomethyl)-6-methyl-N-[(2-methyl-1,3-thiazol-5-yl)methyl]pyrazine-2-carboxamide]	0.1 to 1	–
Cc1ncc(CNC(=O)c2ccc(CNS(=O)(=O)c3ccc(F)cc3)cn2)s1 [5-(4-fluorobenzenesulfon-amidomethyl)-N-[(2-methyl-1,3-thiazol-5-yl)methyl]pyridine-2-carboxamide]	1 to 10	–

Compound	IC50 (read-out: Binned Activity) [µM]	IC50 [1] [µM]
Cc1ncc(CNC(=O)c2cnc(CNS(=O)(=O)c3ccc(F)cc3)cn2)s1 [5-(4-fluorobenzenesulfon-midomethyl)-N-[(2-methyl-1,3-thiazol-5-yl)methyl]pyrazine-2-carboxamide]	1 to 10	–
Cc1ncc(CNC(=O)c2cnc(CNS(=O)(=O)c3cc(Cl)ccc3F)c(C)n2)s1 [5-(5-chloro-2-fluorobenzenesulfon-amidomethyl)-6-methyl-N-[(2-methyl-1,3-thiazol-5-yl)methyl]pyrazine-2-carboxamide]	1 to 10	–
Cc1ncc(CNC(=O)c2cnc(CNS(=O)(=O)c3cc(Cl)ccc3F)cn2)s1 [5-(5-chloro-2-fluorobenzenesulfon-amidomethyl)-N-[(2-methyl-1,3-thiazol-5-yl)methyl]pyrazine-2-carboxamide]	> 10	10
Cc1ncc(CNC(=O)c2ccc(CNS(=O)(=O)c3cc(Cl)ccc3F)cn2)s1 [5-(5-chloro-2-fluorobenzenesulfon-amidomethyl)-N-[(2-methyl-1,3-thiazol-5-yl)methyl]pyridine-2-carboxamide]	> 10	10
Cc1ncc(CNC(=O)c2ccc(CNS(=O)(=O)c3ccc(Cl)s3)cn2)s1 [5-(5-chlorothiophene-2-sulfonamidomethyl)-N-[(2-methyl-1,3-thiazol-5-yl)methyl]pyridine-2-carboxamide]	> 10	10
Cc1ncc(CNC(=O)c2ccc(CNS(=O)(=O)c3ccc(Cl)nc3)cn2)s1 [5-(6-chloropyridine-3-sulfonamidomethyl)-N-[(2-methyl-1,3-thiazol-5-yl)methyl]pyridine-2-carboxamide]	> 10	10
Cc1ncc(CNC(=O)c2ccc(CNS(=O)(=O)c3ccc(Cl)c4nonc34)cn2)s1 [5-(7-chloro-2,1,3-benzoxadiazole-4-sulfonamidomethyl)-N-[(2-methyl-1,3-thiazol-5-yl)methyl]pyridine-2-carboxamide]	> 10	10
Cc1ncc(CNC(=O)c2ccc(CNS(=O)(=O)c3ccoc3)cn2)s1 [5-(furan-3-sulfonamidomethyl)-N-[(2-methyl-1,3-thiazol-5-yl)methyl]pyridine-2-carboxamide]	> 10	10
Cc1ncc(CNC(=O)c2cnc(CNC(=O)c3ccc(Cl)cc3Cl)cn2)s1 [5-{[(2,4-dichlorophenyl)form-amido]methyl}-N-[(2-methyl-1,3-thiazol-5-yl)methyl]pyrazine-2-carboxamide]	> 10	10
Cc1ncc(CNC(=O)c2ccc(CNC(=O)c3ccc(Cl)cc3Cl)cn2)s1 [5-{[(2,4-dichlorophenyl)form-amido]methyl}-N-[(2-methyl-1,3-thiazol-5-yl)methyl]pyridine-2-carboxamide]	> 10	10
Cc1ncc(CNC(=O)c2cnc(CNC(=O)c3ccc(Cl)c(Cl)c3)cn2)s1 [5-{[(3,4-dichlorophenyl)form-amido]methyl}-N-[(2-methyl-1,3-thiazol-5-yl)methyl]pyrazine-2-carboxamide]	> 10	10
Cc1ncc(CNC(=O)c2ccc(CNC(=O)c3ccc(Cl)c(Cl)c3)cn2)s1 [5-{[(3,4-dichlorophenyl)form-amido]methyl}-N-[(2-methyl-1,3-thiazol-5-yl)methyl]pyridine-2-carboxamide]	> 10	10
Cc1ncc(CNC(=O)c2cnc(CNC(=O)c3cc(F)cc(F)c3)c(C)n2)s1 [5-{[(3,5-difluorophenyl)form-amido]methyl}-6-methyl-N-[(2-methyl-1,3-thiazol-5-yl)methyl]pyrazine-2-carboxamide]	> 10	10
Cc1ncc(CNC(=O)c2cnc(CNC(=O)c3cc(F)cc(F)c3)cn2)s1 [5-{[(3,5-difluorophenyl)form-amido]methyl}-N-[(2-methyl-1,3-thiazol-5-yl)methyl]pyrazine-2-carboxamide]	> 10	10
Cc1ncc(CNC(=O)c2ccc(CNC(=O)c3cc(F)cc(F)c3)cn2)s1 [5-{[(3,5-difluorophenyl)form-amido]methyl}-N-[(2-methyl-1,3-thiazol-5-yl)methyl]pyridine-2-carboxamide]	> 10	10
Cc1ncc(CNC(=O)c2cnc(CNC(=O)c3cccc(Cl)c3C)c(C)n2)s1 [5-{[(3-chloro-2-methylphenyl)formamido]methyl}-6-methyl-N-[(2-methyl-1,3-thiazol-5-yl)methyl]pyrazine-2-carboxamide]	> 10	10
Cc1ncc(CNC(=O)c2ccc(CNC(=O)c3cccc(Cl)c3C)cn2)s1 [5-{[(3-chloro-2-methylphenyl)formamido]methyl}-N-[(2-methyl-1,3-thiazol-5-yl)methyl]pyridine-2-carboxamide]	> 10	10
